Results published in patent publication US10730874B2 (Shire Human Genetic Therapies, Inc., priority 2018, dated 2020).

Molecular target: human activated kallikrein enzyme (plasma kallikrein) (Homo sapiens (Human), UniProt P03952)
Test: Inhibition of human activated plasma kallikrein, fluorogenic peptide substrate assay, 500 pM enzyme format
Type: biochemical
Settings: 500 pM activated kallikrein enzyme, 300 uM Pro-Phe-Arg-7-amido-4-methylcoumarin substrate, 30 min preincubation, 10 min at RT; read-out: Primary Dose Response Assay: Average EC50
Method in brief: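 Buffer 20 mM Tris pH 7.5, EDTA, NaCl, PEG-400, Triton X-100; 300 uM Pro-Phe-Arg-AMC; enzyme–inhibitor preincubation 30 min RT. Format one: 500 pM kallikrein, 10 min RT reaction; format two: 5 pM kallikrein, 18 h RT reaction. Fluorescence read at 460 nm (380 nm excitation).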

Sequence of human activated kallikrein enzyme (plasma kallikrein) (P03952 391-638): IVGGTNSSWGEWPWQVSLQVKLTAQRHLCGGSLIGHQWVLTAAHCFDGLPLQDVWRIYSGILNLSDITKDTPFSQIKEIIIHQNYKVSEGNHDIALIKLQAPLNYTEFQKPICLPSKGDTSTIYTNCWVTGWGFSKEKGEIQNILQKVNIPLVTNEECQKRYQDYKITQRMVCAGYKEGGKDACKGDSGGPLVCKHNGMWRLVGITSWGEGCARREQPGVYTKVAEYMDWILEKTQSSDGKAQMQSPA
Sequence of human activated kallikrein enzyme (plasma kallikrein) (P03952 20-390 partner): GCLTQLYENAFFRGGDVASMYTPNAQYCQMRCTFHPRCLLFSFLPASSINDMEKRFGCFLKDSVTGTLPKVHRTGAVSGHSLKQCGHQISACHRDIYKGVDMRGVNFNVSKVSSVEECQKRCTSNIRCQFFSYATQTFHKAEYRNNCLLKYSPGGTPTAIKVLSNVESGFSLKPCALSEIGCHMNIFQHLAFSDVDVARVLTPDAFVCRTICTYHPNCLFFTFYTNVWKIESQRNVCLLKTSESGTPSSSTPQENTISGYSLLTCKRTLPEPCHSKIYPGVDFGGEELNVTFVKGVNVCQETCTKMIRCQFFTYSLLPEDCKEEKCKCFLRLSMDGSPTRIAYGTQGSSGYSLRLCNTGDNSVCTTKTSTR

SMILES	EC50
CCOC(=O)C=Cc1cc(C2CC2)cn2cc(Cn3cc(C(=O)NCc4ncn5ccc(Cl)cc45)cn3)nc12 [Example I-100a, ethyl 3-(2-((4-(((7-chloroimidazo[1,5-a]pyridin-1-yl)methyl)carbamoyl)-1H-pyrazol-1-yl)methyl)-6-cyclopropylimidazo[1,2-a]pyridin-8-yl)acrylate]	< 1 nM
CC(C)(Cc1cc(C2CC2)cn2cc(Cn3cc(C(=O)NCc4ncn5ccc(Cl)c(F)c45)nn3)nc12)C(=O)O [Example I-206, 3-(2-((4-(((7-chloro-8-fluoroimidazo[1,5-a]pyridin-1-yl)methyl)carbamoyl)-1H-1,2,3-triazol-1-yl)methyl)-6-cyclopropylimidazo[1,2-a]pyridin-8-yl)-2,2-dimethylpropanoic acid]	< 1 nM
CCc1cccc2nc(Cn3cc(C(=O)NCc4ncn5ccc(Cl)cc45)cn3)cn12 [Example I-46, N-((7-chloroimidazo[1,5-a]pyridin-1-yl)methyl)-1-((5-ethylimidazo[1,2-a]pyridin-2-yl)methyl)-1H-pyrazole-4-carboxamide]	10 to 100 nM
O=C(NCc1ncn2ccc(Cl)cc12)c1cnn(Cc2cn3cc(C4CC4)cc(C4COC4)c3n2)c1 [Example I-132, N-((7-chloroimidazo[1,5-a]pyridin-1-yl)methyl)-1-((6-cyclopropyl-8-(oxetan-3-yl)imidazo[1,2-a]pyridin-2-yl)methyl)-1H-pyrazole-4-carboxamide]	< 1 nM
